Test results as given in patent publication US10508120B2, “TYK2 inhibitors and uses thereof” (Nimbus Lakshmi, Inc., priority 2017, dated 2019).
pKd: −log10 of the molar value.

Assays:
[1] = molecular target: human TYK2 (JH2domain-pseudokinase) (Homo sapiens (Human), UniProt P29597); test: TYK2 JH2 Domain Binding Assay (KINOMEscan)
Procedure, shortened: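 Displacement of a DNA-tagged TYK2 JH2 fusion (human, aa G556–D888, HEK293 extract, <0.1 nM) from ligand-coated beads over 1 h at RT; binding buffer PBS/0.05% Tween 20/10 mM DTT/0.1% BSA.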

Tyk2 kinase domain (DH1) = Tyk2 kinase domain (DH1) (Homo sapiens (Human), UniProt P29597); test: Tyk2 Radioactive Kinase Assay; format: biochemical; conditions: compound at 10 μM, ATP 10 μM; for inhibition at 10 µM: read-out: Tyk2 JH1% Inhibition @ 10 μM
Chain of Tyk2 kinase domain (DH1) (P29597 897-1176): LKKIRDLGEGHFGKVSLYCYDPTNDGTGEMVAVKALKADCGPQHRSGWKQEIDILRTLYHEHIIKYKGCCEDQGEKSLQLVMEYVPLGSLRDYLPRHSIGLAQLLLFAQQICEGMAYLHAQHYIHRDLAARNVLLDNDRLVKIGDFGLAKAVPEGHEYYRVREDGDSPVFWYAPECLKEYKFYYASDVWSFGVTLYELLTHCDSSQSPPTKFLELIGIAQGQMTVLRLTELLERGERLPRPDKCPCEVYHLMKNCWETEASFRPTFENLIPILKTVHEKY
Procedure, shortened: (§1)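 Single-point screen: 10 μM test compound, radioactive kinase read-out, percent inhibition reported for each kinase domain.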

JAK2 kinase domain (JH1) = JAK2 kinase domain (JH1) (Homo sapiens (Human), UniProt O60674); test: JAK2 Radioactive Kinase Assay; format: biochemical; conditions: compound at 10 μM, ATP 10 μM; for inhibition at 10 µM: read-out: JAK2 JH1% Inhibition @ 10 μM
Chain of JAK2 kinase domain (JH1) (O60674 849-1124): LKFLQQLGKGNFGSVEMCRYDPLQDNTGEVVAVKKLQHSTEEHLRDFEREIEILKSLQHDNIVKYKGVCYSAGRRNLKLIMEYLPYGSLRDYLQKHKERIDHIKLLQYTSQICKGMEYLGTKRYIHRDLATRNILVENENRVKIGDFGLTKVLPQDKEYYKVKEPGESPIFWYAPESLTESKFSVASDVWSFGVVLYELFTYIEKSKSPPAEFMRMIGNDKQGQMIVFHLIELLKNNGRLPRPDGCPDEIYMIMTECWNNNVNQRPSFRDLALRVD
Procedure, shortened: as §1

Chain of human TYK2 (JH2domain-pseudokinase) (P29597 556-888): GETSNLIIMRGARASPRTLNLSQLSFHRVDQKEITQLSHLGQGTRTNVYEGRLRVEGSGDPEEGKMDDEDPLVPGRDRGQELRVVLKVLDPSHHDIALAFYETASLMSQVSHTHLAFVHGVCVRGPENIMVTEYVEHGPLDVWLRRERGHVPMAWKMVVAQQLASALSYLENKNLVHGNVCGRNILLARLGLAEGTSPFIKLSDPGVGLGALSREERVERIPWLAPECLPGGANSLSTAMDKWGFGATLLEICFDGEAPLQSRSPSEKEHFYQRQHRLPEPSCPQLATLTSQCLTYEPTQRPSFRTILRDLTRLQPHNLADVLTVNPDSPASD

SMILES | pKd [1] | inhibition at 10 µM (Tyk2 kinase domain (DH1)) [%] | inhibition at 10 µM (JAK2 kinase domain (JH1)) [%] | Tyk2 JH1% Inhibition @ 10 μM (Tyk2 kinase domain (DH1)) | JAK2 JH1% Inhibition @ 10 μM (JAK2 kinase domain (JH1))
CNc1cc(Nc2cccn([C@@H]3CCCN(C)C3)c2=O)nc2c(C(=O)N[C@@H]3C[C@@H]3F)cnn12 [I-536] | 9.00 to 9.70 | < 50 | < 50 | – | –
CNc1cc(Nc2cccn([C@@H]3CCC[C@@H]3OC)c2=O)nc2c(C(=O)N[C@@H]3C[C@@H]3F)cnn12 [I-537] | 8.00 to 9.00 | – | – | A (percent inhibition at 10 μM lower than 50) | A (percent inhibition at 10 μM lower than 50)
CNc1cc(Nc2cccn([C@H]3CCC[C@H]3OC)c2=O)nc2c(C(=O)N[C@@H]3C[C@@H]3F)cnn12 [I-538] | 8.00 to 9.00 | < 50 | < 50 | – | –
CNc1cc(Nc2cccn(C3CCN(C)CC3)c2=O)nc2c(C(=O)NCC(C)(C)CO)cnn12 [I-542] | 9.00 to 9.70 | < 50 | < 50 | – | –
CNc1cc(Nc2cccn(C3CCN(C)CC3)c2=O)nc2c(C(=O)NCC3(CO)CC3)cnn12 [I-543] | 9.00 to 9.70 | < 50 | < 50 | – | –
CNc1cc(Nc2cccnc2OC2CC2)nc2c(C(=O)N[C@@H]3COC[C@@H]3O)cnn12 [I-546] | 8.00 to 9.00 | < 50 | < 50 | – | –
CNc1cc(Nc2cccc([C@@H]3CCCOC3)n2)nc2c(C(=O)NC3CC3)cnn12 [I-548] | > 9.70 | < 50 | 50 to 70 | – | –
CNc1cc(Nc2cccc([C@H]3CCCOC3)n2)nc2c(C(=O)NC3CC3)cnn12 [I-549] | > 9.70 | < 50 | < 50 | – | –
CNc1cc(Nc2cccn(C3CC4(COC4)C3)c2=O)nc2c(C(=O)NC3CC3)cnn12 [I-550] | > 9.70 | < 50 | < 50 | – | –
CNc1cc(-n2cc(N3CCCC3)c3ncccc32)nc2c(C(=O)NC3CC3)cnn12 [I-552] | 8.00 to 9.00 | < 50 | < 50 | – | –
CNc1cc(-n2cc(N3CCCC3)c3ncccc32)nc2c(C(=O)N[C@@H]3C[C@@H]3F)cnn12 [I-553] | 9.00 to 9.70 | < 50 | < 50 | – | –
CNc1cc(-n2cc(N3CCOCC3)c3ncccc32)nc2c(C(=O)NC3CC3)cnn12 [I-554] | 8.00 to 9.00 | < 50 | < 50 | – | –
CNc1cc(-n2cc(N3CCOCC3)c3ncccc32)nc2c(C(=O)N[C@H]3C[C@H]3F)cnn12 [I-555] | 8.00 to 9.00 | < 50 | < 50 | – | –
CNc1cc(Nc2cccn(C3CCOCC3)c2=O)nc2c(C(=O)N[C@@H]3CC[C@@H]3O)cnn12 [I-556] | > 9.70 | < 50 | < 50 | – | –
CNc1cc(Nc2cccn(C3CCOCC3)c2=O)nc2c(C(=O)N[C@H]3CC[C@H]3O)cnn12 [I-557] | 9.00 to 9.70 | – | – | A (percent inhibition at 10 μM lower than 50) | A (percent inhibition at 10 μM lower than 50)
CNc1cc(Nc2cc(F)cn([C@@H]3CCCOC3)c2=O)nc2c(C(=O)N[C@H]3C[C@H]3F)cnn12 [I-558] | > 9.70 | < 50 | < 50 | – | –
CNc1cc(Nc2cccn([C@H]3CC[C@H](OC)CC3)c2=O)nc2c(C(=O)N[C@H]3CC[C@H]3O)cnn12 [I-561] | 9.00 to 9.70 | – | – | A (percent inhibition at 10 μM lower than 50) | A (percent inhibition at 10 μM lower than 50)
CNc1cc(Nc2cccc([C@H]3CCCCO3)n2)nc2c(C(=O)NCC3(CO)CC3)cnn12 [I-564] | > 9.70 | < 50 | < 50 | – | –
CNc1cc(Nc2cccc([C@@H]3CCCCO3)n2)nc2c(C(=O)NCC3(CO)CC3)cnn12 [I-565] | > 9.70 | < 50 | < 50 | – | –
CNc1cc(Nc2cccn([C@@H]3CCOC[C@@H]3OC)c2=O)nc2c(C(=O)NC3CC3)cnn12 [I-567] | 8.00 to 9.00 | < 50 | < 50 | – | –
CNc1cc(Nc2cccn([C@@H]3CCC[C@H](OC)C3)c2=O)nc2c(C(=O)NC3CC3)cnn12 [I-568] | > 9.70 | < 50 | < 50 | – | –
CNc1cc(Nc2cccn(C3CCN(CCF)CC3)c2=O)nc2c(C(=O)NC3CC3)cnn12 [I-569, N-cyclopropyl-5-((1-(1-(2-fluoroethyl)piperidin-4-yl)-2-oxo-1,2-dihydropyridin-3-yl)amino)-7-(methylamino)pyrazolo[1,5-a]pyrimidine-3-carboxamide] | > 9.70 | < 50 | < 50 | – | –
CNc1cc(Nc2cccn(C3CCCOC3)c2=O)nc2c(C(=O)NCC(C)(C)CO)cnn12 (stereo not drawn) [I-571] | > 9.70 | < 50 | < 50 | – | –
